US6656921B1, “Use of zinc hyaluronate against peptic ulcer” (Richter Gedeon Vegyeszeti Gyar RT., priority 1997, dated 2003)
Marks after values point to notes of the source that are not given here.

How the values were obtained:
Type in all cases: in vivo, rat
[1] = system: acidified ethanol induced gastric lesion; test: Inhibition of acidified-ethanol induced gastric lesions; conditions: for Inhibition / Lesion length/stomach mm ± S.E.M. / Lesion length/stomach: 30 min before acidified ethanol; for ED50 (dose giving 50% decrease in ulcer index): p.o., 30 min pretreatment
Description: Female RG-Wistar rats weighing between 120-150 g were used. Before experiments animals were fasted for 24 hours but received water ad libitum.
Experiments were carried out according to the technique similar to that described by A. Robert [Gastroenterology 77, […] (1979)].
Acidified ethanol (mixture of 50 ml of abs. ethanol and 1 ml of concentrated HCI) was used as strong irritants. Dose of acidified ethanol was 0.5 ml/100 g body weight with intragastric administration. Test compounds were given orally 30 minutes before the acidified ethanol challenge. When the duration of action of test compound was studied test material was administered 60 or 120 minutes earlier to the irritating effect induced by acidified-ethanol effect. One hour after the acidified ethanol treatment rats were sacrificed by cervical dislocation. Stomachs were removed and opened along the greater curvature and mildly washed down. The longitudinal hemorrhagic lesions were assayed by length.
ED50 value was defined as the dose that gave a 50% decrease in ulcer index.

[2] = system: acidified ethanol induced gastric damage; test: Effect of L-NAME (endogenous NO) on protection against acidified-ethanol induced gastric damage
Description: To study the mechanism of action of the compound to be tested, the involvement of endogenous NO in the development of acidified-ethanol induced gastric damage was also studied by intraperitoneal administration of L-N^G-nitroarginine methyl ester (L-NAME). L-NAME at a dose of 25 mg/kg was injected 15 minutes before the test compound. In subsequent experiments the test compound (p.o.), L-NAME (25 mg/kg i.p.), L-arginine (400 mg/kg i.v.) were administered 30, 45 or 60 minutes before oral administration of acidified-ethanol.
The connection between the cytoprotective effect of zinc hyaluronate and endogenic NO was studied by using an inhibitor of the nitrogen(II) oxide biosynthesis namely, N^G-nitro-L-arginine methyl ester (L-NAME). Considering that zinc hyaluronate(II) and zinc hyaluronate(M) had shown the same activity in acidified ethanol test, the latter was the only one tested in this experiment.

[3] = system: indomethacin induced gastric lesion; test: Inhibition of indomethacin induced gastric lesion; conditions: for Protection of gastric mucosa against indomethacin (in words): rat, in vivo
Description: 2. Inhibition of Indomethacin Induced Gastric Lesion Female RG Wistar rats weighing between 120-150 g were used. Before the experiments animals were fasted for 24 hours but received water ad libitum. Test compounds were given orally, 30 minutes later the animals were treated subcutaneously with indomethacin at a dose of 40 mg/kg. Four hours after the irritating indomethacin administration the animals were killed by cervical dislocation. The stomachs were removed, opened along the greater curvature and the hemorrhagic lesions were counted on the glandular stomach.
ED50 value represents the dose which protects the stomach by 50 % from the damaging effect of indomethacin.

[4] = system: stress-induced gastric lesion; test: Inhibition of stress (cold-restraint) induced gastric lesions; conditions: for Lesion score/stomach ± S.E.M.: 30 min before cold-restraint stress, score 0-3; for Inhibition: 30 min before stress; for Protection against cold-restraint induced gastric damage (in words): rat, in vivo
Description: Female RG Wistar rats weighing between 120-150 g were used. Before the experiments animals were fasted for 24 hours but received water ad libitum. Experiments were carried out according to the technique similar to that described by Senay et al., (1967). [Proc. Soc. Exp. Biol. Med.124,1221, (1967)].
Test compounds were given orally. 30 minutes later the animals were immobilized in plastic restraint boxes then placed into a refrigerator at 4° C.-8° C. temperature. Four hours later the animals were removed from both the refrigerator and the restraint boxes and one hour later they were sacrificed by cervical dislocation. The stomachs were removed, opened along the greater curvature and hemorrhagic lesions were scored by a zero to 3 scale: stomachs free from any damage were given a score of 0, stomachs with only a few hemorrhagic lesion were given a score of 1, stomachs with more lesion numbers than 10 were given a score of 2, and stomachs with a lot of lesions were characterized with a score of 3.
The ED50 were defined as the dose needed to decrease the score of gastric lesions by 50%.

[5] = system: platelet activating factor (PAF) induced gastric lesion; test: Inhibition of gastric damage induced by platelet activating factor (PAF)
Description: Male, RG-Wistar rats weighing between 200-250 g were used. Before the experiments animals were fasted for 24 hours but received water ad libitum. Experiments were carried out according to the technique similar to that described by Wallace and Whittle (1986). [Br.J.Pharmac., 89,415, (1986)]. Animals were anaesthetized by intraperitoneal administration of urethane at a dose of 1 g/kg in a volume of 10 ml/kg. Femoral vein was then prepared and cannulated for administration of ulcerogenic PAF. After the surgery PAF was infused intravenously at a rate of 0.1 ml/min for ten minutes at a dose of 200 ng/kg/min. Test compounds were given 30 minutes before the PAF challenge. One hour after the infusion of PAF animals were sacrificed by cervical dislocation; their stomachs were removed and opened along the greater curvature. The hemorrhagic erosions were evaluated by a zero to three scoring system.

[6] = system: acetic acid induced chronic gastric ulcer; test: Inhibition of acetic acid induced chronic gastric ulcer; conditions: for Ulcerated area mm^2 ± S.E.M.: 1.0 mg/kg p.o. once a day, day 5 to 14 after surgery; for Effect on healing of acetic acid induced chronic ulcer (in words): rat, in vivo
Description: Female, RG Wistar rats weighing between 120-150 g were used. Before the surgery animals were deprived of food for 24 hours but received water ad libitum. The chronic gastric ulcer was induced by the injection of 25 μl/animal of 20% (v/v) acetic acid into the gastric wall under light ether anaesthesia according to the method similar to that described by Takagi et al. (1969). The oral treatment with the test compounds was started five days after the surgery and continued in a once-a-day regimen up to the 14th day. The animals were killed on the 15th day and their stomachs were dissected. The severity of ulceration was evaluated by the measurement of the diameter of the ulcers and the area affected was calculated. The healing effect was expressed as differences in percentage between the control and test group values.

[7] = system: gastrointestinal motility; test: Gastrointestinal motility in the charcoal propulsion test; conditions: 100 mg/kg p.o.; for Propulsion of charcoal suspension mm ± S.E.M.: 30 min before charcoal, 60 min after charcoal
Description: Experiments were performed on female, RG-Wistar rats weighing 120-140 g, which were fasted for 24 hours but received water ad libitum.
The experimental procedure was carried out according to the technique similar to that described of P. A. Janssen and A. J. Jageneau [J. Pharm. Pharmacel. 9, 381 (1957)].
Test compounds were given orally at a dose of 100 mg/kg. Control animals received physiological saline solution instead of test compounds. 30 minutes later, the 5% (w/v) charcoal suspension was administered orally at a volume of 0.5 ml/animal. 60 minutes after the charcoal treatment the animals were sacrificed by cervical dislocation. The intestine from pylorus to cecum was removed, its lengths measured along with the distance traversed by the charcoal meal.
Motility was expressed as the ratio of length of charcoal suspension to the length of the whole intestine.

[8] = L-NAME + zinc chloride, 25 + 25 mg/kg
[9] = Vehicle + zinc chloride, 0 + 25 mg/kg
[10] = 25 mg/kg p.o., 30 min before indomethacin
[11] = 100 mg/kg p.o., 30 min before indomethacin
[12] = 100 mg/kg p.o., 30 min before indomethacin 40 mg/kg s.c.
[13] = 1.0 mg/kg p.o., 30 min before indomethacin
[14] = 1.0 mg/kg p.o., 30 min before indomethacin 40 mg/kg s.c.
[15] = 10.0 mg/kg p.o., 30 min before indomethacin
[16] = 10.0 mg/kg p.o., 30 min before indomethacin 40 mg/kg s.c.
[17] = listed as Zink-hyaluronate (III)

Molecule | Protection of gastric mucosa against indomethacin (in words) [3] | Protection against cold-restraint induced gastric damage (in words) [4] | Inhibition ([1]; 50 mg/kg p.o.) [%] | Lesion length/stomach mm ± S.E.M. ([1]; 50 mg/kg p.o.) [mm] | Inhibition ([1]; 100 mg/kg p.o.) [%] | Lesion length/stomach mm ± S.E.M. ([1]; 100 mg/kg p.o.) [mm] | Inhibition [3, 11] [%] | Lesion number/stomach ± S.E.M. [3, 12] | Inhibition ([1]; 10 mg/kg p.o.) [%] | ED50 (dose giving 50% decrease in ulcer index) [1] [mg/kg] | Inhibition [3, 13] [%] | Lesion number/stomach ± S.E.M. [3, 14] | Inhibition [3, 15] [%] | Lesion number/stomach ± S.E.M. [3, 16] | Ulcerated area mm^2 ± S.E.M. [6] [mm^2] | Effect on healing of acetic acid induced chronic ulcer (in words) [6] | further results
[Cl-].[Cl-].[Zn+2] [Zinc chloride, zinc chloride, reference compound] | do not provide any effect | only slight protective effects | – | – | – | – | – | – | – | – | – | – | – | – | – | – | Inhibition ([1]; 3.2 mg/kg p.o.): 43.7%; Lesion length/stomach mm ± S.E.M. ([1]; 3.2 mg/kg p.o.): 29.0 ± 4.0 mm; Inhibition ([1]; 6.4 mg/kg p.o.): 52.0%; Lesion length/stomach mm ± S.E.M. ([1]; 6.4 mg/kg p.o.): 24.7 ± 7.7 mm; Inhibition ([1]; 12.8 mg/kg p.o.): 87.0%; Lesion length/stomach mm ± S.E.M. ([1]; 12.8 mg/kg p.o.): 6.7 ± 1.6 mm; Effect of L-NAME pretreatment on the gastroprotective activity (in words) ([2]; L-NAME 25 mg/kg): not influenced; Inhibition (compared with the vehicle + vehicle group) [2, 8]: 73.2%; Lesion length/stomach mm ± S.E.M. [2, 8]: 19.9 ± 5.5 mm; Inhibition (compared with the vehicle + vehicle group) [2, 9]: 89.2%; Lesion length/stomach mm ± S.E.M. [2, 9]: 8.0 ± 2.6 mm; Inhibition [3, 10]: 0%; Lesion number/stomach ± S.E.M. [3, 10]: 15.1 ± 3.7; Lesion score/stomach ± S.E.M. ([4]; 25 mg/kg p.o.): 0.6 ± 0.2; Inhibition ([4]; 25 mg/kg p.o.): 40.0%
sodium hyaluronate [reference compound] | do not provide any effect | only slight protective effects | 15.6 | 65.7 ± 9.8 | 35.9 | 49.9 ± 6.0 | 36.2 | 14.6 ± 3.3 | – | – | – | – | – | – | – | – | Inhibition ([1]; 100 mg/kg p.o., listed as sodium hyaluronate): 36%; Lesion score/stomach ± S.E.M. ([4]; 100 mg/kg p.o.): 0.9 ± 0.2; Inhibition ([4]; 100 mg/kg p.o.): 40.0%; Inhibition ([5]; 100 mg/kg p.o., 30 min before PAF): 0%; Lesion score/stomach ± S.E.M. ([5]; 100 mg/kg p.o., 30 min before PAF infusion, score 0-3): 2.6 ± 0.2^a; Protection against ulcerogenic effect of PAF (in words) ([5]; rat, in vivo): did not show such effect
zinc hyaluronate [Zinc hyaluronate (I)] | – | – | 66.7 | – | 93.4 | – | 90.4 | 0.8 ± 0.4 | 35.0 | 15.9 | 43.4 | 4.7 ± 2.1 | 55.4 | 3.7 ± 1.9 | 10.0 ± 2.3 | Neither zinc hyaluronate(I), nor zinc hyaluronate(III) had any effect | Inhibition ([1]; 1 mg/kg p.o.): 0%; Lesion length/stomach ([1]; 1 mg/kg p.o.): 95.3 ± 14.8; Lesion length/stomach ([1]; 10 mg/kg p.o.): 53.6 ± 7.3; Lesion length/stomach ([1]; 50 mg/kg p.o.): 27.4 ± 7.6; Lesion length/stomach ([1]; 100 mg/kg p.o.): 5.4 ± 2.0; Effect on the intestinal motility (in words) [7]: absence of change in activity; Propulsion of charcoal suspension mm ± S.E.M. ([7]; listed as Zink-hyaluronate (I)): 718 ± 5.6 mm; Ratio of charcoal suspension to the whole intestinal part ([7]; listed as Zink-hyaluronate (I)): 0.79 ± 0.07
zinc hyaluronate [Zinc hyaluronate (III)] | – | – | 78.5 | 14.9 ± 4.5 | 85.7 | 9.9 ± 3.5 | 83.7 | 3.0 ± 1.4 | 0 | 33.2 | 7.6 | 17.0 ± 4.5 | 57.6 | 7.9 ± 2.5 | 6.8 ± 0.8 | Neither zinc hyaluronate(I), nor zinc hyaluronate(III) had any effect | Lesion length/stomach mm ± S.E.M. ([1]; 10 mg/kg p.o.): 98.4 ± 12.7 mm; Inhibition ([1]; 25 mg/kg p.o.): 37.0%; Lesion length/stomach mm ± S.E.M. ([1]; 25 mg/kg p.o.): 43.7 ± 7.7 mm; Propulsion of charcoal suspension mm ± S.E.M. [7, 17]: 68 ± 2.5 mm; Ratio of charcoal suspension to the whole intestinal part [7, 17]: 0.89 ± 0.03
